Source: patent EP2527323A1, “Urea carbonyl disulfide derivatives and their therapeutic uses” (NOSCIRA, S.A., priority 2011, dated 2012)

Experiments:
human recombinant GSK3β = target: T1, human recombinant GSK3β (Homo sapiens, UniProt P49841); experiment: GSK-3β assay (Z'-LYTE FRET enzymatic activity); format: biochemical; conditions: 2 nM enzyme (N-terminal 6His-tagged, H350L mutation), 12.5 µM ATP, 2 µM Ser/Thr 9 peptide, 60 min at room temperature, 1% DMSO; read-out: GSK3β inhibition average EC50
T1 construct: 6His (N); purchased Millipore (Billerica, MA, USA)
T1 sequence (P49841 whole entry): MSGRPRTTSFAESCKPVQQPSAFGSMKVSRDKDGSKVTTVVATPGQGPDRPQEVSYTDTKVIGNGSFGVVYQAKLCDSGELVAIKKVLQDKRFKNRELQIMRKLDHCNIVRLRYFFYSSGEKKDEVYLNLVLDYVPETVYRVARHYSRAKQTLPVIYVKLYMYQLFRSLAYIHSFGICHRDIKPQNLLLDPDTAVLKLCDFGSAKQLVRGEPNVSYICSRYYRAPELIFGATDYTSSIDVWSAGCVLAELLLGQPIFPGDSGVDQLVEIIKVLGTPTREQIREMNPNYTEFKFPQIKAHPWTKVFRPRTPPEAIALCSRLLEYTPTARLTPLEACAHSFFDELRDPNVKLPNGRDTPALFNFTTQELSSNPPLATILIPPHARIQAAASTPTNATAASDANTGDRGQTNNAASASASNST
Method: The enzymatic activity of GSK3β was determined with a commercial system based on the Z'-LYTE® technology, available from Invitrogen Life Technologies (Carlsbad, CA, USA), using human recombinant GSK3β (N-terminal 6His-tagged recombinant enzyme with an H350L mutation) from Millipore (Billerica, MA, USA) as the enzyme source. This technology utilizes the fluorescence resonance energy transfer ("FRET") process between fluorescein and coumarin. The assay principle is based on the differential sensitivity of phosphorylated and non-phosphorylated peptide to proteolytic cleavage, which precludes the energy transfer process between the two fluorophores attached to both sides of the cleavage site. […] The latter is a synthetic peptide, provided by Invitrogen under the commercial name "Ser/Thr 9 peptide", and it is based upon the sequence of a GSK3β substrate protein (glycogen synthase I) containing Ser-641. The peptide is labeled at both ends with fluorescein and coumarin. The assay is carried out in the presence of different concentrations of the tested compound, at a final 1% (v/v) DMSO concentration. After a 60 min incubation at room temperature, 5 µl of a commercial protease solution (sold by the same vendor in the assay kit) is added and a subsequent 1h incubation at room temperature is performed, before adding 5 µl of a suitable "stop solution", also provided by the vendor in the kit. After that, fluorescence intensity is recorded, monitoring emission at both 445 and 520 nm, upon excitation at 400 nm. An emission ratio is finally calculated, using the quotient among the emission at 445 nm divided by that at 520 nm.
The emission ratio of each tested sample is normalized to that of the control wells, so that for every compound concentration the percentage of inhibition is calculated by using the following equation: % Inhibition = 100⋅(E-S)/(E-B) [formula] wherein "S" is the emission ratio of the sample being considered, "E" is the average emission ratio of wells, including enzyme in the absence of inhibitors, and "B" is the average emission ratio of wells without enzyme. The inhibition values obtained at every compound concentration are finally used to calculate the EC50 of the tested compound, this parameter being the concentration of the compound which causes 50% of inhibition. For that purpose, the data were fitted to a classical 4-parameters isotherm equation using the nonlinear regression function of GraphPad™ Prism 5.0 (GraphPad Software Inc.). Such equation is described below: % Inhibition = L + (H-L)/(1 + (((EC50)/(C)))^n) [formula] wherein "L" is the lower asymptote of the theoretical sigmoidal curve, "H" is the higher asymptote, "C" is the concentration of compound and "n" is the Hill coefficient.

[1] = tested on: Ser-396 residue of Tau protein in human neuroblastoma SH-SY5Y cells; experiment: Cellular assay: phosphorylation at Ser-396 of Tau protein (ELISA); format: cell-based; conditions: 18 h incubation at 37°C, 1% DMSO, normalized to untreated cells, read-out: pS*er396-Tau average EC50
Method: The effect of the compound in cells is determined by monitoring the level of phosphorylation at the Ser-396 residue of Tau protein in human neuroblastoma SH-SY5Y cells. Cells are grown in 96-well plates: 30,000 cells per well in a volume of 100 µl of 1:1 MEM:Ham's F12 medium including 10% (v/v) fetal bovine serum, 100 U/ml penicillin, 100 µg/ml streptomycin and 1% (v/v) 100-fold concentrated commercial stock of non-essential aminoacids (Gibco, Carlsbad, CA, USA), and incubated at 37°C during 24 h. Then, the corresponding amount of test compound is added to the wells to reach the desired concentration in 1% (v/v) DMSO. The system is incubated at 37°C during 18 h and afterwards cells are harvested, washed with phosphate buffer saline and incubated during 30 min on ice with 120 µl per well of "lysis buffer" (10 mM Tris-HCl pH 7.4, 100 mM NaCl, 1 mM EDTA, 2 mM sodium orthovanadate, 1% (v/v) Triton X-100, 10% (v/v) glycerol, 0.1% (w/v) sodium dodecyl sulfate, 0.5 % (w/v) sodium deoxycholate, 4% (v/v) 25-fold concentrated commercial stock of protease inhibitors (Roche, Basel, Switzerland) and 1 mM phenylmethylsulfonyl fluoride). 60 µl of this mixture is then placed in an empty 96-well plate and the levels of Ser-396 phosphorylation are determined using a commercial ELISA kit (Biosource, Carlsbad, CA, USA), following manufacturer's instructions. The levels of phosphorylation are expressed as percentage values, after normalizing them to those in untreated cells and those values are used to calculate EC50s, as described above for GSK-3.

SMILES | EC50 (human recombinant GSK3β) | EC50 [1]
C=CCSSC(=O)N(Cc1ccccc1)C(=O)Nc1cccc2ccccc12 [Compound 1, 1-Benzyl-1-hex-2,3-dithia-5-enoyl-3-naphthalen-1-yl-urea] | 708 nM | –
CCCCSSC(=O)N(Cc1ccccc1)C(=O)Nc1cccc2ccccc12 [Compound 2, 1-Benzyl-1-heptan-2,3-dithia-1-oyl-3-naphthalen-1-yl-urea] | 66 nM | –
CC(C)C(C)SSC(=O)N(Cc1ccccc1)C(=O)Nc1cccc2ccccc12 (centres unmarked) [Compound 3, 1-Benzyl-1-(4,5 dimethy-hexan-2,3-dithia-1-oyl)-3-naphthalen-1-yl-urea] | 161 nM | –
O=C(Nc1cccc2ccccc12)N(Cc1ccccc1)C(=O)SSCCc1ccccc1 [Compound 4, 1-Benzyl-1-(5-phenyl-pentan-2,3-dithia-1-oyl)-3-naphthalen-1-yl-urea] | 58 nM | 6.61 µM
O=C(Nc1cccc2ccccc12)N(Cc1ccccc1)C(=O)SSC1CCCC1 [Compound 5, 1-Benzyl-1-(3-cyclopentyl-propion-2,3-dithia-1-oyl)-3-naphthalen-1-yl-urea] | 125 nM | –
O=C(Nc1cccc2ccccc12)N(Cc1ccccc1)C(=O)SSCc1ccccc1 [Compound 6, 1-Benzyl-3-naphthalen-1-yl-1-(4-phenyl-butyr-2,3-dithia-1-oyl)-urea] | 229 nM | 6.76 µM
O=C(Nc1ccc2c(c1)OCO2)N(Cc1ccccc1)C(=O)SSC1CCCC1 [Compound 7, 3-Benzo[1,3]dioxol-5-yl-1-benzyl-1-(1-propion-2,3-dithia-3-cyclopentyl-1-yl)-urea] | 82 nM | –
CCOC(=O)CNC(=O)N(CC(=O)OCC)C(=O)SSCCc1ccccc1 [Compound 8, [3-Ethoxycarbonylmethyl-3-(pentan-2,3-dithia-5-phenyl-1-yl)-ureido]-acetic acid ethyl ester] | 97 nM | –
CCCCCSSC(=O)N(Cc1ccccc1)C(=O)NCc1ccccc1 [Compound 10, 1,3-Dibenzyl-1-(octan-2,3-dithia-1-oyl)-urea] | 295 nM | 7.08 µM

Now from value to compound, other results behind:

EC50 (human recombinant GSK3β) | SMILES | EC50 [1]
35 nM | CC(C)C(C)SSC(=O)N(Cc1ccccc1)C(=O)Nc1ccc(Oc2ccccc2)cc1 (centres unmarked) [Compound 9, 1-Benzyl-1-(hexan-2,5-dithia-4,5-dimethyl-1-yl)-3-(4-phenoxy-phenyl)-urea] | –
104 nM | COC(=O)C(CSSC(=O)N(Cc1ccccc1)C(=O)Nc1cccc2ccccc12)NC(C)=O (centres unmarked) [Compound 11, 2-Acetylamino-6-(1-benzyl-3-naphthalen-1-yl-ureido)-4-5-dithia-6-oxo-hexanoic acid methyl ester] | –
8320 nM | CCN(CC)C(=O)N(C(=O)SSCc1ccccc1)c1cc(F)cc(F)c1 [Compound 12] | –
339 nM | CCSSC(=O)N(C(=O)N(C)C)c1cccc(C(F)(F)F)c1 [Compound 13] | –
1660 nM | O=C(Nc1cccc2ccccc12)N(Cc1ccccc1)C(=O)SS [Compound 15, Benzyl-(N-Naphthalen-1-yl-formamide)-carbamoyl sodium dithioperoxol] | –
